According to patent US8129417B2, “Substituted octahydrocyclopenta[C]pyrrol-4-amines as calcium channel blockers” (Abbott Laboratories, priority 2008, dated 2012):

Biological target: human Cav2.2 (Homo sapiens, UniProt Q00975)
Test: Assessment of calcium channel activity using FLIPR (Ca2+ influx in IMR32 cells)
Type: cell-based
Details: 60 minute pre-incubation with compound, 2 μM nifedipine, depolarized with 80 mM KCl
In short: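 IMR32 neuroblastoma cells seeded at 1-1.2×10^5 cells/well and grown 48 h at 37 °C before FLIPR Ca2+ influx read. Percent inhibition at each concentration vs no-inhibitor activity; IC50 by non-linear sigmoidal dose-response fit.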

Chain of human Cav2.2 (Q00975 whole entry): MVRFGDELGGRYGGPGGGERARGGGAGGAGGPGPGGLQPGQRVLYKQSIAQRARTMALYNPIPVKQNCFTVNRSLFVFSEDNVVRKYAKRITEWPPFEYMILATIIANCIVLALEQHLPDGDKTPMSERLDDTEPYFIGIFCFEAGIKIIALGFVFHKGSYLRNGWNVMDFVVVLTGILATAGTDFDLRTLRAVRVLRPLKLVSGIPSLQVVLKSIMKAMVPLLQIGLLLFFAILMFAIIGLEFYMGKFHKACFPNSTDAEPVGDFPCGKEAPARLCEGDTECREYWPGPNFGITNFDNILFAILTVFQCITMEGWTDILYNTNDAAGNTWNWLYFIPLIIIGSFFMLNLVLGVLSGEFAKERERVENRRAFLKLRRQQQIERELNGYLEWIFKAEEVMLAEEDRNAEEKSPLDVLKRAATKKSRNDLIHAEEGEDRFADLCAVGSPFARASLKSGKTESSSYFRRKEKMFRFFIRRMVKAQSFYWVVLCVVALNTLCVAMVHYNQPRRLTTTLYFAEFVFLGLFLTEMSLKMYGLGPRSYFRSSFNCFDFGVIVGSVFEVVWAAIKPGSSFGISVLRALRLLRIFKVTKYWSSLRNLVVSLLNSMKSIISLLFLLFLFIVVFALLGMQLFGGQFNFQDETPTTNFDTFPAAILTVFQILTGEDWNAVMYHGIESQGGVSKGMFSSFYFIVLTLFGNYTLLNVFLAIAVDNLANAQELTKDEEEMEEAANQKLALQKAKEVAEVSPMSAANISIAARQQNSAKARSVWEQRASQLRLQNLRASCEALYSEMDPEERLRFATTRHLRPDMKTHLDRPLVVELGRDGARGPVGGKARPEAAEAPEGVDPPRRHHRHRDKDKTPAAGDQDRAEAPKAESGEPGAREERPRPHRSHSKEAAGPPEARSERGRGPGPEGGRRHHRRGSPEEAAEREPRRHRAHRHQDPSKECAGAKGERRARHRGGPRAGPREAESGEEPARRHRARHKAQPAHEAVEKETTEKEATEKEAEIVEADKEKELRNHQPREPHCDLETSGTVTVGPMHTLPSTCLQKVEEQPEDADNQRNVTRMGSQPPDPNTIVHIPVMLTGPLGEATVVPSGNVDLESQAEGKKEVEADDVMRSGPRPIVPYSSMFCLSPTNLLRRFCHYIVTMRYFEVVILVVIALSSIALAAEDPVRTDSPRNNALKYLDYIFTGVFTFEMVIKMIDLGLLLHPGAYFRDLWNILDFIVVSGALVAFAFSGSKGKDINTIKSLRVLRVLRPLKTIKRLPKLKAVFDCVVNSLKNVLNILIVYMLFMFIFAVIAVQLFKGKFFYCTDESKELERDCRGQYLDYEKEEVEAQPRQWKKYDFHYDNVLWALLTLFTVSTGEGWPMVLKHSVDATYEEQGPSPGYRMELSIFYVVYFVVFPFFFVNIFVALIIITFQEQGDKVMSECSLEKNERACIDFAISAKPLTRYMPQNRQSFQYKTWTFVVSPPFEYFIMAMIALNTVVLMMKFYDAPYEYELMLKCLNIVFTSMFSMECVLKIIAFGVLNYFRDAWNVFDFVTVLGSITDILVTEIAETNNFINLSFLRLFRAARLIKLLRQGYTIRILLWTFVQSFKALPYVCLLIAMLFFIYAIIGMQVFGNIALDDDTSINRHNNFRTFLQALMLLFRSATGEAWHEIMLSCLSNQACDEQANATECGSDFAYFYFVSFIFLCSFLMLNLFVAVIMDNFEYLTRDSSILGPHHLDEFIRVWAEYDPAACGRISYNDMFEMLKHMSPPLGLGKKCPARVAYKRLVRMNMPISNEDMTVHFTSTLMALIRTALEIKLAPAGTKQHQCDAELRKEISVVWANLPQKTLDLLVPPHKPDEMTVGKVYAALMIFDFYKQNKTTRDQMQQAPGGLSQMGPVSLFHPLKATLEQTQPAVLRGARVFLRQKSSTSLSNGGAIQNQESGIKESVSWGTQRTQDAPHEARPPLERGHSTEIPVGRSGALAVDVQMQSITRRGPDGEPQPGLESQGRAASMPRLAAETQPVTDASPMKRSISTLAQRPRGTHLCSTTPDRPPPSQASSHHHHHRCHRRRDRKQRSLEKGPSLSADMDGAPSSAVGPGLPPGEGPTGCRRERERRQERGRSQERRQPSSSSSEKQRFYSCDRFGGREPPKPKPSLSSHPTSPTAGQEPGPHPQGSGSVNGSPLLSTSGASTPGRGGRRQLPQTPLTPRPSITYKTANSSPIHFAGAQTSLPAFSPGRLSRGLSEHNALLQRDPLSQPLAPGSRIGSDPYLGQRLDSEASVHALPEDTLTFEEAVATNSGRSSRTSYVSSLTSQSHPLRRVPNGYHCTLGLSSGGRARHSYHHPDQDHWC
Chain of human Cav2.2 (P54289 25-946 partner limits assumed): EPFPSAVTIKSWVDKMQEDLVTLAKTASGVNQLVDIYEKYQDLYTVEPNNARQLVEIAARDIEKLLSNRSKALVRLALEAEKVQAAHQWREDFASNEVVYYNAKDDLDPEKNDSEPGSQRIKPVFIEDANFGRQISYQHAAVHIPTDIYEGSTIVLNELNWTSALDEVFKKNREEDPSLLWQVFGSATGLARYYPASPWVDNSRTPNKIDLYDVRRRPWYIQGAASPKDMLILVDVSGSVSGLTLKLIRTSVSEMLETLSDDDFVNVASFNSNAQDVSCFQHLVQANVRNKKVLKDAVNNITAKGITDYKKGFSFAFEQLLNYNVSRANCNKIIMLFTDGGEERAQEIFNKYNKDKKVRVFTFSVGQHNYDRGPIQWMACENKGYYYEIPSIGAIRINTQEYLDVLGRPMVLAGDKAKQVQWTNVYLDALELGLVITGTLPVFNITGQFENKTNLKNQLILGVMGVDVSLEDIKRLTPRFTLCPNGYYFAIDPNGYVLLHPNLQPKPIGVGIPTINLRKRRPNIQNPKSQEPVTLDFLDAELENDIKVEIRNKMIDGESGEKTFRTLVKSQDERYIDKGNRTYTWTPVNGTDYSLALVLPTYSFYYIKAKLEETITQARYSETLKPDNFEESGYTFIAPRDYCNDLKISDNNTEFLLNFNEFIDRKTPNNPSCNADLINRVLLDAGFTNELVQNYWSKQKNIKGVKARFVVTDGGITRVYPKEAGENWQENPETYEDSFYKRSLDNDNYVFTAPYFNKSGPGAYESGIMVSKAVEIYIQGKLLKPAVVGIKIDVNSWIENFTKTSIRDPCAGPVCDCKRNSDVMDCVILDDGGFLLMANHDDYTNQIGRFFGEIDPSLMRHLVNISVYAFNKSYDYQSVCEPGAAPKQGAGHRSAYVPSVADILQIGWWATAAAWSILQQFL
Chain of human Cav2.2 (P54289 947-1103 partner limits assumed): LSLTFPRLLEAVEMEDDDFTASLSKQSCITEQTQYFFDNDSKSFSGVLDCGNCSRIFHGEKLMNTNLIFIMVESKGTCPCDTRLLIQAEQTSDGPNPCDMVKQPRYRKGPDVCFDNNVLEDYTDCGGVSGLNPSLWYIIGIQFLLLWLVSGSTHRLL
Chain of human Cav2.2 (P54284 whole entry partner): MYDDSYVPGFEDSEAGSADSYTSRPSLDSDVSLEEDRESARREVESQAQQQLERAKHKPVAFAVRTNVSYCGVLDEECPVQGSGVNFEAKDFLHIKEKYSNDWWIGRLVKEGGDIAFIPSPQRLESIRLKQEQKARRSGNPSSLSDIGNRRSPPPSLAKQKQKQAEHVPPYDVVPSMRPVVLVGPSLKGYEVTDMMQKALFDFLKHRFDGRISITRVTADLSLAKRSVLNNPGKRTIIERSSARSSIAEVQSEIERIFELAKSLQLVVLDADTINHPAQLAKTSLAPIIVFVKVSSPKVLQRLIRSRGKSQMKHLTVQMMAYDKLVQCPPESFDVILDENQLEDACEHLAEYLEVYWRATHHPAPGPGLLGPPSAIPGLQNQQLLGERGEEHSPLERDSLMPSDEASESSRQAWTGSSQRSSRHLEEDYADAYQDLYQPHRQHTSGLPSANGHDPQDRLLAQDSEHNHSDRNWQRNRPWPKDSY

Row | SMILES | IC50 [nM]
1 | CCC[C@H](NCC(C)(C)C)C(=O)N[C@@H]1CC[C@H]2CN(S(=O)(=O)c3cccc(C(F)(F)F)c3)C[C@H]21 [Example 255, N^2-neopentyl-N^1-((3aS,4R,6aR)-2-{[3-(trifluoromethyl)phenyl]sulfonyl}octahydrocyclopenta[c]pyrrol-4-yl)-L-norvalinamide] | 550
2 | CC(C)C[C@H](NCC(C)(C)C)C(=O)N[C@H]1CC[C@@H]2CN(S(=O)(=O)c3ccc(C(F)(F)F)cc3)C[C@@H]21 [Example 256, N^2-neopentyl-N^1-((3aR,4S,6aS)-2-{[4-(trifluoromethyl)phenyl]sulfonyl}octahydrocyclopenta[c]pyrrol-4-yl)-L-leucinamide] | 1380
3 | CN(C(=O)OC(C)(C)C)C(Cc1ccccc1)C(=O)NC1CCC2CN(S(=O)(=O)c3ccc(C(F)(F)F)cc3)CC21 [Example 258, N-(tert-butoxycarbonyl)-N-methyl-N-((3aR,4S,6aS)-2-{[4-(trifluoromethyl)phenyl]sulfonyl}octahydrocyclopenta[c]pyrrol-4-yl)-1-phenylalaninamide] | 850
4 | CCC[C@@H](C(=O)N[C@H]1CC[C@@H]2CN(S(=O)(=O)c3ccc(C(F)(F)F)cc3)C[C@@H]21)N(C)C(=O)OC(C)(C)C [Example 259, tert-butyl methyl((S)-1-oxo-1-((3aR,4S,6aS)-2-(4-(trifluoromethyl)phenylsulfonyl)octahydrocyclopenta[c]pyrrol-4-ylamino)pentan-2-yl)carbamate] | 1140
5 | CC(C)(C)C[C@H](NC(=O)OC(C)(C)C)C(=O)N[C@H]1CC[C@@H]2CN(c3ccc(C(F)(F)F)cn3)C[C@@H]21 [Example 262, tert-butyl(S)-4,4-dimethyl-1-oxo-1-((3aR,4S,6aS)-2-(5-(trifluoromethyl)pyridin-2-yl)octahydrocyclopenta[c]pyrrol-4-ylamino)pentan-2-ylcarbamate] | 1800
6 | CC(C)(C)C[C@H](NC(=O)OC(C)(C)C)C(=O)N[C@H]1CC[C@@H]2CN(c3cccc(C(F)(F)F)n3)C[C@@H]21 [Example 264, tert-butyl(S)-4,4-dimethyl-1-oxo-1-((3aR,4S,6aS)-2-(6-(trifluoromethyl)pyridin-2-yl)octahydrocyclopenta[c]pyrrol-4-ylamino)pentan-2-ylcarbamate] | 280
7 | CC(C)(C)C[C@H](NC(=O)OC(C)(C)C)C(=O)N[C@H]1CC[C@@H]2CN(c3cnc(S(C)(=O)=O)nc3)C[C@@H]21 [Example 265, tert-butyl(S)-4,4-dimethyl-1-((3aR,4S,6aS)-2-(2-(methylsulfonyl)pyrimidin-5-yl)octahydrocyclopenta[c]pyrrol-4-ylamino)-1-oxopentan-2-ylcarbamate] | 2620
8 | CC(C)(C)OC(=O)N1CCC[C@H]1C(=O)N[C@@H]1CC[C@H]2CN(S(=O)(=O)c3cccc(C(F)(F)F)c3)C[C@H]21 [Example 266, (S)-tert-butyl 2-((3aS,4R,6aR)-2-(3-(trifluoromethyl)phenylsulfonyl)octahydrocyclopenta[c]pyrrol-4-ylcarbamoyl)pyrrolidine-1-carboxylate] | 870
9 | CC(C)(C)OC(=O)N1CCCC[C@H]1C(=O)N[C@@H]1CC[C@H]2CN(S(=O)(=O)c3cccc(C(F)(F)F)c3)C[C@H]21 [Example 268, tert-butyl(2S)-2-{[((3aS,4R,6aR)-2-{[3-(trifluoromethyl)phenyl]sulfonyl}octahydrocyclopenta[c]pyrrol-4-yl)amino]carbonyl}piperidine-1-carboxylate] | 730
10 | CN(C(=O)OC(C)(C)C)C(Cc1ccccc1)C(=O)NC1CCC2CN(S(=O)(=O)c3cccc(C(F)(F)F)c3)CC21 [Example 270, N-(tert-butoxycarbonyl)-N-methyl-N-((3aR,4S,6aS)-2-{[3-(trifluoromethyl)phenyl]sulfonyl}octahydrocyclopenta[c]pyrrol-4-yl)-L-phenylalaninamide] | 770
11 | CC(C)(C)OC(=O)N1CCC[C@H]1C(=O)N[C@H]1CC[C@@H]2CN(S(=O)(=O)c3cccc(C(F)(F)F)c3)C[C@@H]21 [Example 271, (S)-tert-butyl 2-((3aR,4S,6aS)-2-(3-(trifluoromethyl)phenylsulfonyl)octahydrocyclopenta[c]pyrrol-4-ylcarbamoyl)pyrrolidine-1-carboxylate] | 3410
12 | CC(C)[C@@H](CC(=O)N[C@H]1CC[C@@H]2CN(S(=O)(=O)c3cccc(C(F)(F)F)c3)C[C@@H]21)NC(=O)OC(C)(C)C [Example 272, tert-butyl(1R)-1-isopropyl-3-oxo-[((3aR,4S,6aS)-2-{[3-(trifluoromethyl)phenyl]sulfonyl}octahydrocyclopenta[c]pyrrol-4-yl)amino]propylcarbamate] | 5140
13 | CC(C)[C@@H](C(=O)N[C@H]1CC[C@@H]2CN(S(=O)(=O)c3cccc(C(F)(F)F)c3)C[C@@H]21)N(C)C(=O)OC(C)(C)C [Example 273, tert-butyl methyl((S)-3-methyl-1-oxo-1-((3aR,4S,6aS)-2-(3-(trifluoromethyl)phenylsulfonyl)octahydrocyclopenta[c]pyrrol-4-ylamino)butan-2-yl)carbamate] | 180
14 | CC(C)(C)OC(=O)N1CCCC[C@H]1C(=O)N[C@H]1CC[C@@H]2CN(S(=O)(=O)c3cccc(C(F)(F)F)c3)C[C@@H]21 [Example 274, tert-butyl(2S)-2-{[((3aR,4S,6aS)-2-{[3-(trifluoromethyl)phenyl]sulfonyl}octahydrocyclopenta[c]pyrrol-4-yl)amino]carbonyl}piperidine-1-carboxylate] | 1380
15 | CC(C)(C)OC(=O)N1Cc2ccccc2C[C@H]1C(=O)N[C@H]1CC[C@@H]2CN(S(=O)(=O)c3cccc(C(F)(F)F)c3)C[C@@H]21 [Example 275, tert-butyl(3S)-3-{[((3aR,4S,6aS)-2-{[3-(trifluoromethyl)phenyl]sulfonyl}octahydrocyclopenta[c]pyrrol-4-yl)amino]carbonyl}-3,4-dihydroisoquinoline-2(1H)-carboxylate] | 920
16 | CC(C)(C)C[C@H](NC(=O)OC(C)(C)C)C(=O)N[C@H]1CC[C@@H]2CN(S(=O)(=O)c3cccc(C(F)(F)F)c3)C[C@@H]21 [Example 276, tert-butyl(S)-4,4-dimethyl-1-oxo-1-((3aR,4S,6aS)-2-(3-(trifluoromethyl)phenylsulfonyl)octahydrocyclopenta[c]pyrrol-4-ylamino)pentan-2-ylcarbamate] | 380
17 | CCCC[C@@H](C(=O)N[C@H]1CC[C@@H]2CN(S(=O)(=O)c3cccc(C(F)(F)F)c3)C[C@@H]21)N(C)C(=O)OC(C)(C)C [Example 277, tert-butyl methyl((S)-1-oxo-1-((3aR,4S,6aS)-2-(3-(trifluoromethyl)phenylsulfonyl)octahydrocyclopenta[c]pyrrol-4-ylamino)hexan-2-yl)carbamate] | 720
18 | CCC[C@@H](C(=O)N[C@H]1CC[C@@H]2CN(S(=O)(=O)c3cccc(C(F)(F)F)c3)C[C@@H]21)N(C)C(=O)OC(C)(C)C [Example 278, tert-butyl methyl((S)-1-oxo-1-((3aR,4S,6aS)-2-(3-(trifluoromethyl)phenylsulfonyl)octahydrocyclopenta[c]pyrrol-4-ylamino)pentan-2-yl)carbamate] | 340
19 | CC(C)(C)CN[C@@H]1CC[C@H]2CN(S(=O)(=O)c3cccc(C(F)(F)F)c3)C[C@H]21 [Example 281, (3aS,4R,6aR)—N-neopentyl-2-{[3-(trifluoromethyl)phenyl]sulfonyl}octahydrocyclopenta[c]pyrrol-4-amine] | 4180

Next, values leading:

Row | IC50 [nM] | SMILES
20 | 5240 | CC(C)(C)CN[C@H]1CC[C@@H]2CN(S(=O)(=O)c3cccc(C(F)(F)F)c3)C[C@@H]21 [Example 282, (3aR,4S,6aS)—N-neopentyl-2-{[3-(trifluoromethyl)phenyl]sulfonyl}octahydrocyclopenta[c]pyrrol-4-amine]
21 | 8690 | CC(C)N[C@H]1CC[C@@H]2CN(S(=O)(=O)c3ccc(C(F)(F)F)cc3)C[C@@H]21 [Example 283, (3aR,4S,6aS)—N-isopropyl-2-{[4-(trifluoromethyl)phenyl]sulfonyl}octahydrocyclopenta[c]pyrrol-4-amine]
22 | 480 | O=S(=O)(c1cccc(C(F)(F)F)c1)N1C[C@@H]2CC[C@@H](NCc3ccc(F)cc3)[C@@H]2C1 [Example 285, (3aS,4R,6aR)—N-(4-fluorobenzyl)-2-{[3-(trifluoromethyl)phenyl]sulfonyl}octahydrocyclopenta[c]pyrrol-4-amine]
23 | 380 | O=S(=O)(c1cccc(C(F)(F)F)c1)N1C[C@H]2CC[C@H](NCc3ccc(F)cc3)[C@H]2C1 [Example 286, (3aR,4S,6aS)—N-(4-fluorobenzyl)-2-{[3-(trifluoromethyl)phenyl]sulfonyl}octahydrocyclopenta[c]pyrrol-4-amine]
24 | 3090 | Fc1ccc(CN[C@H]2CC[C@@H]3CN(Cc4cccc(C(F)(F)F)c4)C[C@@H]32)cc1 [Example 287, (3aR,4S,6aS)—N-(4-fluorobenzyl)-2-[3-(trifluoromethyl)benzyl]octahydrocyclopenta[c]pyrrol-4-amine]
25 | 10400 | CCN[C@H]1CC[C@@H]2CN(S(=O)(=O)c3ccc(C(F)(F)F)cc3)C[C@@H]21 [Example 288, (3aR,4S,6aS)—N-ethyl-2-{[4-(trifluoromethyl)phenyl]sulfonyl}octahydrocyclopenta[c]pyrrol-4-amine]
26 | 7800 | CCCN[C@H]1CC[C@@H]2CN(S(=O)(=O)c3ccc(C(F)(F)F)cc3)C[C@@H]21 [Example 290, (3aR,4S,6aS)—N-propyl-2-{[4-(trifluoromethyl)phenyl]sulfonyl}octahydrocyclopenta[c]pyrrol-4-amine]
27 | 4400 | CCCN(CCC)[C@H]1CC[C@@H]2CN(S(=O)(=O)c3ccc(C(F)(F)F)cc3)C[C@@H]21 [Example 291, (3aR,4S,6aS)—N,N-dipropyl-2-{[4-(trifluoromethyl)phenyl]sulfonyl}octahydrocyclopenta[c]pyrrol-4-amine]
28 | 3910 | O=S(=O)(c1ccc(C(F)(F)F)cc1)N1C[C@H]2CC[C@H](NCC3CC3)[C@H]2C1 [Example 292, (3aR,4S,6aS)—N-(cyclopropylmethyl)-2-{[4-(trifluoromethyl)phenyl]sulfonyl}octahydrocyclopenta[c]pyrrol-4-amine]
